{
  "source": "patent US5607967A",
  "about": "“Treatment of alzheimer's disease with 5-(tetradecyloxy)-2-furan carboxylic acid” (Merck & Co., Inc., priority 1994, dated 1997)",
  "key": {"GR/NUC chimeric receptor": {"molecular_target": "T1, GR/NUC chimeric receptor (Homo sapiens, UniProt Q03181)", "T1 construct": "transfected cells, MMTV-luciferase", "T1 sequence (Q03181 1-441)": "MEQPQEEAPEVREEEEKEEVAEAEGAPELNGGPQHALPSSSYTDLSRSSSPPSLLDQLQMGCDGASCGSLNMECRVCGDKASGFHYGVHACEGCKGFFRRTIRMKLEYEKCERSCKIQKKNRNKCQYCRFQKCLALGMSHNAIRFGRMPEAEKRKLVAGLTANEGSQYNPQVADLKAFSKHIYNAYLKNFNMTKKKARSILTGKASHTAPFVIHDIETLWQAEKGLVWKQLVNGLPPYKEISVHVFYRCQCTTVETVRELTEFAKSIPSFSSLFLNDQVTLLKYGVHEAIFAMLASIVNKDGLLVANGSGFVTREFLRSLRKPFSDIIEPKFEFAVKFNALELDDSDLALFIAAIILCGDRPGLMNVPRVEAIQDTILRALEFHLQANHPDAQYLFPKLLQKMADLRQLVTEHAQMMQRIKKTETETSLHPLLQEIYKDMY", "T1 sequence (P06537 1-792 partner)": "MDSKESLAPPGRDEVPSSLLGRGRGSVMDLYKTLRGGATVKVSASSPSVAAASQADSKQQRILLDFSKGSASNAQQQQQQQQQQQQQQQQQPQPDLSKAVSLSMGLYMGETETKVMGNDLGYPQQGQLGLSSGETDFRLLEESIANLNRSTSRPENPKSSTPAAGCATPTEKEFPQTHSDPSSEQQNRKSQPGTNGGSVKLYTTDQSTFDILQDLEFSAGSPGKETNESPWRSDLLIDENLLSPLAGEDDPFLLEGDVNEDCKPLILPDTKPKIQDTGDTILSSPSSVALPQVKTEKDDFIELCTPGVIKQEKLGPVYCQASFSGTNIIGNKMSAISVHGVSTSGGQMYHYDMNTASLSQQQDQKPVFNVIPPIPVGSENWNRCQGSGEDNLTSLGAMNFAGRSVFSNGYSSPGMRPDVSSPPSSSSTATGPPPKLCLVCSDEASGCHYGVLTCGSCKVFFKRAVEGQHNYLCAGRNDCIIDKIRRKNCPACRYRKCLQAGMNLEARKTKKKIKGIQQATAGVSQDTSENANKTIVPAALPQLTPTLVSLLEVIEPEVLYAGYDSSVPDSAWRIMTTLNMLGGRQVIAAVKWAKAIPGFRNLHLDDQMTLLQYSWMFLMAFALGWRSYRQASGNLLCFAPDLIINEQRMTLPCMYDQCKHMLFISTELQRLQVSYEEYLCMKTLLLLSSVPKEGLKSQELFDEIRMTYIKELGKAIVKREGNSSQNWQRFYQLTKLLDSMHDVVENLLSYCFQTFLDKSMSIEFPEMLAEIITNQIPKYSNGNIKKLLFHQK", "assay": "Ligand dependent transcription assay, GR/NUC chimeric receptor with MMTV-luciferase reporter", "format": "cell-based", "protocol": "Similar hybrid receptors GR/NER, GR/NUC and GR/PPAR, in identical expression plasmid backgrounds were prepared essentially as described for the construction of the GR/mPPAR and GR/NUC chimeric receptors in Schmidt et al., \"Identification of a new member of the steroid hormone receptor superfamily that is activated by a peroxisome proliferator and fatty acids,\" Mol. Endocrinol., 6(10):1634-41, 1992, and in Boie et al., \"Enantioselective activation of the peroxisome proliferator-activated receptor\", J. Biol. Chem. 268(8):5530-4, 1993.\nBriefly, the amino terminal portion of the mouse glucocorticoid receptor (mGR), that includes the DNA binding domain was fused to the putative ligand binding domains of the nuclear receptor NER, hNUC-I (Schmidt et al., 1992), mPPAR (Issenmann and Green, 1990) to form the respective chimeric receptors GR/NER, GR/NUC and GR/PPAR. The GR/NER chimeric receptor was constructed as described for the GR/NUC and GR/PPAR hybrid receptors (Schmidt et al., 1992; Boie et al). The cDNA sequences coding for amino acids Arg^155 and Glu^156 of the NER receptor were converted to the Xho I restriction site, that was later used for the ligation to the GR cDNA sequences that coded for the DNA binding domain. Thus, converting amino acid residues Arg^155 and Glu^156 of NER receptor to amino acid residues Ser^155 and His^156."}, "PC12 cells": {"tested_on": "PC12 cells", "assay": "Neurite differentiation of PC12 cells", "format": "cell-based", "conditions": "for % Cells Bearing Neurites / Average length of neurites: 4 days, mean ±SEM", "protocol": "To further study the influence of TOFA on the nervous system, we tested the effect of TOFA on the differentiation of PC12 cells. PC12 cells were plated at a density of approximately 100-200/mm^2 on collagen coated plates or dishes in RPMI medium supplemented with 10% horse serum, 5% fetal calf serum, […] streptomycin, 50 U/mL penicillin in a water saturated atmosphere of 95% air and 5% CO2, at 37° C. overnight. Medium was replaced with fresh RPMI containing 1.5% serum, 100 ng/mL NGF and the indicated concentration of TOFA or an equivalent volume of vehicle (DMSO) giving a final concentration of 0.1% DMSO.\nAt different time points during the treatment, cells were photographed or fixed with 10% formalin. Morphology was examined after four days of treatment with TOFA or vehicle (DMSO). The number of cells beating neurites and average length of neurites were determined with the aid of the Bioquant imaging system. […] However, as depicted in Table 6 below, NGF alone induced a 15% increase in the number of cells bearing neurites and these outgrowths reached a mean length of 20 μm. Treatment with NGF and TOFA increased the percentage of cells beating neurites to 78%. Maximal neurite generation is observed at a concentration of 10 μM TOFA.\nCells were treated with vehicle (0.1% DMSO) or various concentrations of TOFA in the presence of 100 ng/mL NGF for 4 days, and then fixed with 10% formalin. At least eighty cells from eight wells were analyzed in each group. The results are shown as the mean ±SEM. ^a p<0.01, versus vehicle by Dunnetts test."}, "[1]": {"tested_on": "Dopamine D2 receptor antagonist (Haloperidol) induced catalepsy", "assay": "Haloperidol induced catalepsy (Bar method)", "format": "in vivo, rat", "conditions": "for Catalepsy Duration: TOFA 0.4 mg/kg S.C. pretreatment"}, "[2]": {"conditions": "read-out: Fold of stimulation GR/NUC"}},
  "note": "Values joined by “and” are separate entries in the source; they are usually repeats but may differ in a detail not shown here. Identical values can stand only once. “Also recorded” adds a separate entry of the source.",
  "data": [
    {"smiles": "CCCCCCCCCCCCCCOc1ccc(C(=O)O)o1", "note": "[TOFA, 5-(tetradecyloxy)-2-furan carboxylic acid]", "values": [
      {"measurement": "Expression mediated by GR/NUC", "setting": "GR/NUC chimeric receptor", "value": "stimulated expression"},
      {"measurement": "fold induction at 2 µM", "setting": "GR/NUC chimeric receptor; [2]", "value": "1.95 ± 0.14"},
      {"measurement": "fold induction at 10 µM", "setting": "GR/NUC chimeric receptor; [2]", "value": "2.85 ± 0.2"},
      {"measurement": "fold induction at 50 µM", "setting": "GR/NUC chimeric receptor; [2]", "value": "3.19 ± 0.2"},
      {"measurement": "% Cells Bearing Neurites", "setting": "PC12 cells; 0.1 μM TOFA with 100 ng/mL NGF", "value": "14.27 ± 3.51", "unit": "%"},
      {"measurement": "Average length of neurites", "setting": "PC12 cells; 0.1 μM TOFA with 100 ng/mL NGF", "value": "23.67 ± 2.86", "unit": "μm"},
      {"measurement": "% Cells Bearing Neurites", "setting": "PC12 cells; 1.0 μM TOFA with 100 ng/mL NGF", "value": "24.07 ± 3.06", "unit": "%"},
      {"measurement": "Average length of neurites", "setting": "PC12 cells; 1.0 μM TOFA with 100 ng/mL NGF", "value": "28.63 ± 3.92", "unit": "μm"},
      {"measurement": "% Cells Bearing Neurites", "setting": "PC12 cells; 10 μM TOFA with 100 ng/mL NGF", "value": "78% and 78.39 ± 4.89%"},
      {"measurement": "Average length of neurites", "setting": "PC12 cells; 10 μM TOFA with 100 ng/mL NGF", "value": "32.43 ± 2.38", "unit": "μm"},
      {"measurement": "Concentration of maximal neurite generation", "setting": "PC12 cells; with 100 ng/mL NGF", "value": 10, "unit": "µM"},
      {"measurement": "Catalepsy Duration", "setting": "[1]; 24 h later 0.1 mg/kg Haloperidol", "value": "28.9 ± 4.5", "unit": "s"},
      {"measurement": "Catalepsy Duration", "setting": "[1]; no challenge", "value": 0, "unit": "s"},
      {"measurement": "Effect of TOFA pretreatment on Haloperidol-induced catalepsy", "setting": "[1]; TOFA 0.4 mg/kg S.C., 24 h before 0.1 mg/kg Haloperidol", "value": "did not significantly affect; also recorded: unaffected"}
    ]}
  ]
}
